According to the NIST ThermoML archive (doi:10.1016/j.fluid.2004.10.028):

Experiment: wn = mass fraction of the nth substance listed
Conditions: Liquid, Capillary tube (Ostwald / Ubbelohde) method

O=S(=O)([O-])[O-].[Na+].[Na+] [sodium sulfate] + O
viscosity [mPa·s]
Conditions	100 kPa	10000 kPa	20000 kPa	30000 kPa	40000 kPa
298.15 K, w1 = 0.015	0.933	0.9335	0.9365	0.9399	0.942
298.15 K, w1 = 0.03	0.9746	0.9759	0.9769	0.9799	0.9812
298.15 K, w1 = 0.05	1.035	1.04	1.041	1.042	1.044
298.15 K, w1 = 0.07	1.119	1.119	1.119	1.121	1.122
298.15 K, w1 = 0.1	1.252	1.255	1.256	1.257	1.258
298.15 K, w1 = 0.15	1.545	1.548	1.55	1.551	1.554
298.15 K, w1 = 0.2	1.963	1.965	1.966	1.967	1.968
303.15 K, w1 = 0.23	1.993	1.993	1.996	1.999	2.002
303.15 K, w1 = 0.26	2.243	2.245	2.249	2.253	2.259
323.05 K, w1 = 0.1	0.7656	0.767	0.771	0.7745	0.778
323.15 K, w1 = 0.03	0.5972	0.5991	0.6012	0.6054	0.609
323.15 K, w1 = 0.2	1.168	1.17	1.176	1.181	1.185
323.15 K, w1 = 0.23	1.333	1.336	1.34	1.346	1.353
323.15 K, w1 = 0.26	1.504	1.505	1.509	1.515	1.523
323.25 K, w1 = 0.07	0.6825	0.6846	0.6875	0.6902	0.6935
323.4 K, w1 = 0.15	0.9286	0.9316	0.9354	0.9401	0.945
323.7 K, w1 = 0.015	0.5669	0.5741	0.5795	0.5821	0.5835
323.8 K, w1 = 0.05	0.6285	0.632	0.633	0.636	0.6385
347.2 K, w1 = 0.05	0.4434	0.4465	0.4496	0.453	0.4587
347.6 K, w1 = 0.07	0.4733	0.4764	0.4795	0.4824	0.4875
347.9 K, w1 = 0.2	0.7892	0.7944	0.8004	0.8053	0.811
348.15 K, w1 = 0.015	0.395	0.3977	0.4006	0.4038	0.4087
348.35 K, w1 = 0.03	0.4107	0.4134	0.4169	0.42	0.4225
348.42 K, w1 = 0.1	0.5232	0.5267	0.5294	0.534	0.5399
348.6 K, w1 = 0.26	1.01	1.017	1.023	1.029	1.041
348.7 K, w1 = 0.15	0.6292	0.6336	0.6367	0.6418	0.6473
348.7 K, w1 = 0.23	0.8925	0.8987	0.9053	0.9128	0.92
370.4 K, w1 = 0.23	–	0.6799	0.6864	0.6905	0.6997
371.95 K, w1 = 0.05	–	0.3317	0.335	0.3389	0.343
372.4 K, w1 = 0.1	–	0.3948	0.3979	0.3998	0.4062
372.8 K, w1 = 0.15	–	0.4705	0.4743	0.4795	0.484
372.9 K, w1 = 0.03	–	0.3096	0.3124	0.3164	0.3186
373.8 K, w1 = 0.015	–	0.2947	0.2994	0.3034	0.3065
373.9 K, w1 = 0.07	–	0.3482	0.3508	0.3546	0.359
374.5 K, w1 = 0.2	–	0.5699	0.5743	0.5799	0.5875
375.2 K, w1 = 0.26	–	0.7321	0.7395	0.7436	0.7535
395.4 K, w1 = 0.15	–	0.3731	0.3767	0.381	0.386
395.62 K, w1 = 0.05	–	0.2626	0.2668	0.2695	0.2716
397.1 K, w1 = 0.07	–	0.2772	0.2799	0.2834	0.287
397.21 K, w1 = 0.2	–	0.4505	0.454	0.4598	0.4654
398.4 K, w1 = 0.03	–	0.2422	0.2468	0.2494	0.251
398.72 K, w1 = 0.1	–	0.3052	0.3094	0.3132	0.3159
398.8 K, w1 = 0.23	–	0.5081	0.5124	0.5185	0.5253
399.01 K, w1 = 0.015	–	0.2321	0.2367	0.2398	0.2412
399.4 K, w1 = 0.26	–	0.5695	0.5739	0.58	0.5895
420.3 K, w1 = 0.2	–	0.3686	0.3729	0.3775	0.3826
421.3 K, w1 = 0.15	–	0.2998	0.3027	0.3087	0.3114
421.4 K, w1 = 0.1	–	0.2535	0.2565	0.2596	0.2635
